Experimental data reported in US11084829B2, “Ubiquitin-specific-processing protease 7 (USP7) modulators and uses thereof” (RAPT THERAPEUTICS, INC., priority 2018, dated 2021).

Target: USP7 (Homo sapiens, UniProt Q93009)
Experiment: USP7 inhibitory potency (IC50)
Format: biochemical
Method: Activity for compounds described herein is provided in Table 2, wherein potency levels are provided as follows: (Potency: USP7 IC50: A<0.01 μM; B=0.01-0.1 μM; C=>0.1 μM.

USP7, sequence (Q93009 whole entry): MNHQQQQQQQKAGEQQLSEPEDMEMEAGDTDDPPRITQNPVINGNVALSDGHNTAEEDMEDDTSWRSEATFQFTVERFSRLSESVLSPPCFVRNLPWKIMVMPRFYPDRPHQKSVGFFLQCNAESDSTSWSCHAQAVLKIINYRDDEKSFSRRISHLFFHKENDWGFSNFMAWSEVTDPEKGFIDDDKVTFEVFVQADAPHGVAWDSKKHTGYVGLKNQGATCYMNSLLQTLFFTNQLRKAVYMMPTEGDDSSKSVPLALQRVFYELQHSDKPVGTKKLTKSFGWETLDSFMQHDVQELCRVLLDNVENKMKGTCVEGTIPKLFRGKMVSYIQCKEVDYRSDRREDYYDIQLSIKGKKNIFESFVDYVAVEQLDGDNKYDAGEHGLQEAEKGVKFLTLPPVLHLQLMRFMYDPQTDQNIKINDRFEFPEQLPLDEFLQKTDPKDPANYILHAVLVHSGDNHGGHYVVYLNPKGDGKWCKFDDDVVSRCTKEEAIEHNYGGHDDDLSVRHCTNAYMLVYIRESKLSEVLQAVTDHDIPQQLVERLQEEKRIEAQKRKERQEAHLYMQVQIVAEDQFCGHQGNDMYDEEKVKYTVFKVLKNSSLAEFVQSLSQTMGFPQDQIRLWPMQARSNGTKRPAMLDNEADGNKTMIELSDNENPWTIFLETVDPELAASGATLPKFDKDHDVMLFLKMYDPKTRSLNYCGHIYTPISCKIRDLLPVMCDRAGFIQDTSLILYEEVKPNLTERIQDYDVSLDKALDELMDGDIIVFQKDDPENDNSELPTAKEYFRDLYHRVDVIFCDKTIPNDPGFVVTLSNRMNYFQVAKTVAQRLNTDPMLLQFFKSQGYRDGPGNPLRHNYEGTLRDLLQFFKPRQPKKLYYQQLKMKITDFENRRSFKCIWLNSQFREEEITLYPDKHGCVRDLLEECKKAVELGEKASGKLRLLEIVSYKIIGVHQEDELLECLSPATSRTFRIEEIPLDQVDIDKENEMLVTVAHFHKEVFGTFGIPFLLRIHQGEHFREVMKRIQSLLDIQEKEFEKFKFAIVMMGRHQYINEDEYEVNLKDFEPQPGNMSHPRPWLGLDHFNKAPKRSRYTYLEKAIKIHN

Row | Compound | IC50 [nM]
1 | Cc1cc(Cl)cc(-c2ncnc3cc(CN4C(=O)C5CC5C4=O)sc23)c1C[C@@H]1CNCCO1 (stereo partly drawn) [Example 182, 3-((4-(5-chloro-3-methyl-2-(((R)-morpholin-2-yl)methyl)phenyl)thieno[3,2-d]pyrimidin-6-yl)methyl)-3-azabicyclo[3.1.0]hexane-2,4-dione] | < 10
2 | Cc1cc(Cl)cc(-c2ccnc3cc(CN4C(=O)CCN(C)C4=O)sc23)c1CC1CNCC2(CCC2)O1 (stereo not shown) [Example 144, 3-((7-(2-((5-oxa-8-azaspiro[3.5]nonan-6-yl)methyl)-5-chloro-3-methylphenyl)thieno[3,2-b]pyridin-2-yl)methyl)-1-methyldihydropyrimidine-2,4(1H,3H)-dione] | < 10
3 | C[C@H]1CNCCN1Cc1ccc(Cl)cc1-c1ncnc2cc(CN3C(=O)C4CC4C3=O)sc12 (stereo partly drawn) [Example 64, 3-((4-(5-chloro-2-(((S)-2-methylpiperazin-1-yl)methyl)phenyl)thieno[3,2-d]pyrimidin-6-yl)methyl)-3-azabicyclo[3.1.0]hexane-2,4-dione] | 10 to 100
4 | Cc1cc(Cl)cc(-c2ccnc3c(F)c(CN4C(=O)CNC4=O)sc23)c1C[C@@H]1CNCCO1 [Example 147, (R)-3-((7-(5-chloro-3-methyl-2-(morpholin-2-ylmethyl)phenyl)-3-fluorothieno[3,2-b]pyridin-2-yl)methyl)imidazolidine-2,4-dione] | 10 to 100
5 | C[C@H]1CNC[C@H](C)N1Cc1c(Cl)cc(Cl)cc1-c1ccnc2cc(CN3C(=O)C4CC4C3=O)sc12 (stereo partly drawn) [Example 47, 3-((7-(3,5-dichloro-2-(((2S,6S)-2,6-dimethylpiperazin-1-yl)methyl)phenyl)thieno[3,2-b]pyridin-2-yl)methyl)-3-azabicyclo[3.1.0]hexane-2,4-dione] | < 10
6 | Cc1cc(Cl)cc(-c2ccnc3cc(CN4C(=O)C5CC5C4=O)sc23)c1CC1CNCC2(CCC2)O1 (stereo not shown) [Example 131, 3-((7-(2-((5-oxa-8-azaspiro[3.5]nonan-6-yl)methyl)-5-chloro-3-methylphenyl)thieno[3,2-b]pyridin-2-yl)methyl)-3-azabicyclo[3.1.0]hexane-2,4-dione] | < 10
7 | CC[C@H]1CNCCN1Cc1c(C)cc(Cl)cc1-c1ncnc2cc(CN3C(=O)C4C(C3=O)C4(C)C)sc12 (stereo partly drawn) [Example 52, 3-((4-(5-chloro-2-(((S)-2-ethylpiperazin-1-yl)methyl)-3-methylphenyl)thieno[3,2-d]pyrimidin-6-yl)methyl)-6,6-dimethyl-3-azabicyclo[3.1.0]hexane-2,4-dione] | 10 to 100
8 | Cc1cc(Cl)cc(-c2ncnc3cc(CN4C(=O)C5CC5C4=O)sc23)c1CN1CCN(C)C[C@@H]1C (stereo partly drawn) [Example 55, 3-((4-(5-chloro-2-(((S)-2,4-dimethylpiperazin-1-yl)methyl)-3-methylphenyl)thieno[3,2-d]pyrimidin-6-yl)methyl)-3-azabicyclo[3.1.0]hexane-2,4-dione] | 10 to 100
9 | Cc1cc(Cl)cc(-c2ncnc3cc(CN4C(=O)C5CC5C4=O)sc23)c1CC1CNCC(C)(C)O1 (stereo not shown) [Example 154, 3-((4-(5-chloro-2-((6,6-dimethylmorpholin-2-yl)methyl)-3-methylphenyl)thieno[3,2-d]pyrimidin-6-yl)methyl)-3-azabicyclo[3.1.0]hexane-2,4-dione] | < 10
10 | Cc1cc(Cl)cc(-c2ccnc3cc(CN4C(=O)CCC4=O)sc23)c1CN1C[C@@H](C)NC[C@@H]1C [Example 44, 1-((7-(5-chloro-2-(((2S,5R)-2,5-dimethylpiperazin-1-yl)methyl)-3-methylphenyl)thieno[3,2-b]pyridin-2-yl)methyl)pyrrolidine-2,5-dione] | < 10
11 | C[C@H]1CNCCN1Cc1ccc(F)cc1-c1ncnc2cc(CN3C(=O)C4CC4C3=O)sc12 (stereo partly drawn) [Example 63, 3-((4-(5-fluoro-2-(((S)-2-methylpiperazin-1-yl)methyl)phenyl)thieno[3,2-d]pyrimidin-6-yl)methyl)-3-azabicyclo[3.1.0]hexane-2,4-dione] | > 100
12 | CC1(C)C2C(=O)N(Cc3cc4ncnc(-c5cc(Cl)cc(Cl)c5CC5CNCCO5)c4s3)C(=O)C21 (stereo not shown) [Example 226, 3-((4-(3,5-dichloro-2-(morpholin-2-ylmethyl)phenyl)thieno[3,2-d]pyrimidin-6-yl)methyl)-6,6-dimethyl-3-azabicyclo[3.1.0]hexane-2,4-dione] | < 10
13 | Cc1cc(Cl)cc(-c2ncnc3cc(Cn4c(=O)ccn(CC(F)(F)F)c4=O)sc23)c1CC1CNCCO1 (stereo not shown) [Example 167, 3-((4-(5-chloro-3-methyl-2-(morpholin-2-ylmethyl)phenyl)thieno[3,2-d]pyrimidin-6-yl)methyl)-1-(2,2,2-trifluoroethyl)pyrimidine-2,4(1H,3H)-dione] | < 10
14 | Cc1cc(Cl)cc(-c2ncnc3cc(CN4C(=O)CCC4(C)C#N)sc23)c1CC1CNCC(C)(C)O1 (stereo not shown) [Example 195, 1-((4-(5-chloro-2-((6,6-dimethylmorpholin-2-yl)methyl)-3-methylphenyl)thieno[3,2-d]pyrimidin-6-yl)methyl)-2-methyl-5-oxopyrrolidine-2-carbonitrile] | 10 to 100
15 | Cc1cc(Cl)cc(-c2ccnc3cc(CN4C(=O)CCC4=O)sc23)c1CN1CCN(C(C)C)C[C@@H]1C [Example 21, (S)-1-((7-(5-chloro-2-((4-isopropyl-2-methylpiperazin-1-yl)methyl)-3-methylphenyl)thieno[3,2-b]pyridin-2-yl)methyl)pyrrolidine-2,5-dione] | < 10
16 | Cc1cc(Cl)cc(-c2ncnc3cc(CN4C(=O)CCN(C)C4=O)sc23)c1CC1CNCC(C)(C)O1 (stereo not shown) [Example 193, 3-((4-(5-chloro-2-((6,6-dimethylmorpholin-2-yl)methyl)-3-methylphenyl)thieno[3,2-d]pyrimidin-6-yl)methyl)-1-methyldihydropyrimidine-2,4(1H,3H)-dione] | < 10
17 | Cc1cc(Cl)cc(-c2ncnc3cc(CN4C(=O)CCN(C)C4=O)sc23)c1CC1CNCCO1 (stereo not shown) [Example 164, 3-((4-(5-chloro-3-methyl-2-(morpholin-2-ylmethyl)phenyl)thieno[3,2-d]pyrimidin-6-yl)methyl)-1-methyldihydropyrimidine-2,4(1H,3H)-dione] | < 10
18 | Cc1cc(Cl)cc(-c2ncnc3cc(CN4C(=O)CN(CCCC(=O)O)C4=O)sc23)c1C[C@@H]1CNCCO1 [Example 264, (R)-4-(3-((4-(5-chloro-3-methyl-2-(morpholin-2-ylmethyl)phenyl)thieno[3,2-d]pyrimidin-6-yl)methyl)-2,4-dioxoimidazolidin-1-yl)butanoic acid] | 10 to 100
19 | Cc1cc(Cl)cc(-c2ncnc3cc(CN4C(=O)CN(C)C4=O)sc23)c1CC1CNCC(C)(C)O1 (stereo not shown) [Example 183, 3-((4-(5-chloro-2-((6,6-dimethylmorpholin-2-yl)methyl)-3-methylphenyl)thieno[3,2-d]pyrimidin-6-yl)methyl)-1-methylimidazolidine-2,4-dione] | < 10

The remaining lines, values ahead:

Row | IC50 [nM] | Compound
20 | < 10 | Cc1cc(Cl)cc(-c2ccnc3cc(Cn4c(=O)ccn(C)c4=O)sc23)c1CC1CNCC2(CCC2)O1 (stereo not shown) [Example 145, 3-((7-(2-((5-oxa-8-azaspiro[3.5]nonan-6-yl)methyl)-5-chloro-3-methylphenyl)thieno[3,2-b]pyridin-2-yl)methyl)-1-methylpyrimidine-2,4(1H,3H)-dione]
21 | 10 to 100 | Cc1cc(Cl)cc(-c2ccnc3cc(CN4C(=O)CCC4=O)sc23)c1CN1CCNCC1C(F)F (stereo not shown) [Example 16, 1-((7-(5-chloro-2-((2-(difluoromethyl)piperazin-1-yl)methyl)-3-methylphenyl)thieno[3,2-b]pyridin-2-yl)methyl)pyrrolidine-2,5-dione]
22 | < 10 | Cc1cc(Cl)cc(-c2ccnc3cc(CN4C(=O)C5CC5C4=O)sc23)c1CN1C[C@@H](C)NC[C@H]1C (stereo partly drawn) [Example 34, 3-((7-(5-chloro-2-(((2R,5R)-2,5-dimethylpiperazin-1-yl)methyl)-3-methylphenyl)thieno[3,2-b]pyridin-2-yl)methyl)-3-azabicyclo[3.1.0]hexane-2,4-dione]
23 | < 10 | Cc1cc(Cl)cc(-c2ccnc3cc(CN4C(=O)C5CC5C4=O)sc23)c1CC1CNCCO1 (stereo not shown) [Example 102, 3-((7-(5-chloro-3-methyl-2-(morpholin-2-ylmethyl)phenyl)thieno[3,2-b]pyridin-2-yl)methyl)-3-azabicyclo[3.1.0]hexane-2,4-dione]
24 | < 10 | Cc1cc(Cl)cc(-c2ncnc3cc(CN4C(=O)C5CC5C4=O)sc23)c1CN1[C@@H](C)CNC[C@@H]1C (stereo partly drawn) [Example 57, 3-((4-(5-chloro-2-(((2S,6S)-2,6-dimethylpiperazin-1-yl)methyl)-3-methylphenyl)thieno[3,2-d]pyrimidin-6-yl)methyl)-3-azabicyclo[3.1.0]hexane-2,4-dione]
25 | 10 to 100 | C[C@H]1CNCCN1Cc1c(F)cc(Cl)cc1-c1ncnc2cc(CN3C(=O)C4CC4C3=O)sc12 (stereo partly drawn) [Example 61, 3-((4-(5-chloro-3-fluoro-2-(((S)-2-methylpiperazin-1-yl)methyl)phenyl)thieno[3,2-d]pyrimidin-6-yl)methyl)-3-azabicyclo[3.1.0]hexane-2,4-dione]
26 | 10 to 100 | Cc1cc(Cl)cc(-c2ccnc3cc(CN4C(=O)CCC4=O)sc23)c1CN1CCNCC1 [Example 5, 1-((7-(5-chloro-3-methyl-2-(piperazin-1-ylmethyl)phenyl)thieno[3,2-b]pyridin-2-yl)methyl)pyrrolidine-2,5-dione]
27 | < 10 | Cc1cc(Cl)cc(-c2ncnc3cc(CN4C(=O)CNC4=O)sc23)c1C[C@@H]1CNCC(C)(C)O1 [Example 273, (R)-3-((4-(5-chloro-2-((6,6-dimethylmorpholin-2-yl)methyl)-3-methylphenyl)thieno[3,2-d]pyrimidin-6-yl)methyl)imidazolidine-2,4-dione]
28 | < 10 | CCC1NC(=O)N(Cc2cc3ncnc(-c4cc(Cl)cc(C)c4C[C@@H]4CNCCO4)c3s2)C1=O (stereo partly drawn) [Example 245, 3-((4-(5-chloro-3-methyl-2-(((R)-morpholin-2-yl)methyl)phenyl)thieno[3,2-d]pyrimidin-6-yl)methyl)-5-ethylimidazolidine-2,4-dione]
